Data published in patent publication US20090143279A1 (priority 2007, published 2009).
Where two headings read alike, the source gives them in different places.

Experiments:
[1] = test system: OXPHOS gene expression; format: cell-based, mouse; details: for GE-HTS (composite Z-score): normalized score vs mock-treated (DMSO) wells
[2] = test system: cytochrome c; format: cell-based, mouse; details: for cyt c (composite Z-score): normalized score vs mock-treated (DMSO) wells
[3] = test system: C2C12 myotubes; details: for Viability (composite Z-score): normalized score vs mock-treated (DMSO) wells
[4] = test system: cellular dehydrogenase activity; details: for MTT (composite Z-score): normalized score vs mock-treated (DMSO) wells
[5] = test system: mtOXPHOS transcripts; format: cell-based, mouse; details: for mitoOX (composite Z-score): normalized score vs mock-treated (DMSO) wells
[6] = test system: mitochondrial membrane potential; format: cell-based, mouse; details: for ΔΨm (composite Z-score): normalized score vs mock-treated (DMSO) wells
[7] = test system: nuOXPHOS transcripts; format: cell-based, mouse; details: for nucOX (composite Z-score): normalized score vs mock-treated (DMSO) wells
[8] = test system: reactive oxygen species; format: cell-based, mouse; details: for ROS (composite Z-score): normalized score vs mock-treated (DMSO) wells
[9] = composite Z-score vs DMSO, Conc 20 μM
[10] = composite Z-score vs mock-treated (DMSO) wells, concentration of each compound in μM
[11] = Table 7, C2C12 myotubes, 48 h, composite Z-score
[12] = 20 μM, composite Z-score vs DMSO
[13] = 10.86 μM, composite Z-score vs DMSO
[14] = composite Z-score vs mock-treated (DMSO) wells, Conc 20 μM
[15] = composite Z-score vs DMSO wells, Conc 20 μM

## COc1ccc2c(c1)OCc1c-2oc2cc(OC)ccc12 [dehydrovariabilin]
[1]; [9]
  GE-HTS: 0.367
[2]; [9]
  cyt c: 0.043
[3]; [9]
  Viability: 0.309
[4]; [9]
  MTT: −1.225
[5]; [9]
  mitoOX: 0.416
[6]; [9]
  ΔΨm: 0.951
[7]; [9]
  nucOX: 0.277
[8]; [9]
  ROS: 0.167

## COc1cc2c(cc1OC)-c1cc3ccc(OC)c(OC)c3c[n+]1CC2 [Palmatine, reference compound]
[1]; [10]
  GE-HTS: 1.822
[2]; [10]
  cyt c: −0.084
[3]; [10]
  Viability: −1.028
[4]; [10]
  MTT: −1.222
[5]; [11]
  mito-OXPHOS Z: 1.83
[5]; [10]
  mitoOX: 1.833
[6]; [10]
  ΔΨm: −0.823
[7]; [11]
  nucOXPHOS Z: 1.64
[7]; [10]
  nucOX: 1.636
[8]; [10]
  ROS: 0.511

## CN(C(=O)CN(CCO)CC(=O)N(C)C(C)(C)Cc1ccccc1)C(C)(C)Cc1ccccc1 [oxethazaine]
[1]
  GE-HTS: 0.473
[1]; [12]
  GE-HTS: −0.739
[2]
  cyt c: −0.550
[2]; [12]
  cyt c: −0.278
[3]
  Viability: −0.497
[3]; [12]
  Viability: −0.294
[4]
  MTT: −1.374
[4]; [12]
  MTT: −1.451
[5]
  mitoOX: 0.609
[5]; [12]
  mitoOX: −0.486
[6]
  ΔΨm: −0.742
[6]; [12]
  ΔΨm: 0.173
[7]
  nucOX: 0.335
[7]; [12]
  nucOX: −0.812
[8]
  ROS: 1.092
[8]; [12]
  ROS: −0.055

## O=C(O[C@@H]1Cc2c(O)cc(O)cc2O[C@@H]1c1cc(O)c(O)c(O)c1-c1c([C@H]2Oc3cc(O)cc(O)c3C[C@H]2O)cc(O)c(O)c1O)c1cc(O)c(O)c(O)c1 [2′,2′-bisepigallocatechin monogallate]
[1]; Conc 20 μM
  GE-HTS (composite Z-score): −0.573
[2]; Conc 20 μM
  cyt c (composite Z-score): 0.246
[3]; Conc 20 μM
  Viability (composite Z-score): 0.442
[4]; Conc 20 μM
  MTT (composite Z-score): −1.318
[5]; Conc 20 μM
  mitoOX (composite Z-score): −0.575
[6]; Conc 20 μM
  ΔΨm (composite Z-score): −2.350
[7]; Conc 20 μM
  nucOX (composite Z-score): −0.545
[8]; Conc 20 μM
  ROS (composite Z-score): 0.428

## CO[C@H]1C[C@H](O[C@H]2[C@H](C)[C@@H](O[C@@H]3O[C@H](C)C[C@H](N(C)C)[C@H]3OC(C)=O)[C@@H](C)C[C@@]3(CO3)C(=O)[C@H](C)[C@@H](OC(C)=O)[C@@H](C)[C@@H](C)OC(=O)[C@@H]2C)O[C@@H](C)[C@@H]1OC(C)=O [troleandomycin]
[1]; [9]
  GE-HTS: −1.234
[2]; [9]
  cyt c: −0.063
[3]; [9]
  Viability: −1.520
[4]; [9]
  MTT: −1.250
[5]; [9]
  mitoOX: −0.905
[6]; [9]
  ΔΨm: −0.780
[7]; [9]
  nucOX: −1.277
[8]; [9]
  ROS: 0.099

## CC(C)[N+](C)(CCOC(=O)C1c2ccccc2Oc2ccccc21)C(C)C [propantheline]
[1]; [13]
  GE-HTS: −0.301
[1]; [12]
  GE-HTS: 0.458
[2]; [13]
  cyt c: −0.615
[2]; [12]
  cyt c: 0.379
[3]; [13]
  Viability: −0.361
[3]; [12]
  Viability: 0.142
[4]; [13]
  MTT: −1.670
[4]; [12]
  MTT: −1.026
[5]; [13]
  mitoOX: −1.055
[5]; [12]
  mitoOX: 0.783
[6]; [13]
  ΔΨm: −0.893
[6]; [12]
  ΔΨm: −0.082
[7]; [13]
  nucOX: 0.104
[7]; [12]
  nucOX: 0.254
[8]; [13]
  ROS: 0.589
[8]; [12]
  ROS: 2.062

## CC(=O)OC1CC[C@@]2(C)C(CC[C@H]3[C@@H]4CC=C(C(C)=O)[C@@]4(C)C(=O)C[C@@H]32)C1 (stereo partly shown) [3-acetoxypregn-16-en-12,20-dione]
[1]; [14]
  GE-HTS: −0.885
[2]; [14]
  cyt c: −0.050
[3]; [14]
  Viability: −0.873
[4]; [14]
  MTT: −0.553
[5]; [14]
  mitoOX: −0.958
[6]; [14]
  ΔΨm: −0.216
[7]; [14]
  nucOX: −0.775
[8]; [14]
  ROS: 0.201

## COC1=CC(=O)C(C(=O)c2ccccc2)=CC1=O [2-benzoyl-5-methoxybenzoquinone]
[1]; [9]
  GE-HTS: −0.699
[2]; [9]
  cyt c: 0.206
[3]; [9]
  Viability: −0.284
[4]; [9]
  MTT: −1.489
[5]; [9]
  mitoOX: −0.985
[6]; [9]
  ΔΨm: −0.229
[7]; [9]
  nucOX: −0.511
[8]; [9]
  ROS: −0.542

## NCC[C@H](O)C(=O)N[C@@H]1C[C@H](N)[C@@H](O[C@H]2O[C@H](CN)[C@@H](O)[C@H](O)[C@H]2O)[C@H](O)[C@H]1O[C@H]1O[C@H](CO)[C@@H](O)[C@H](N)[C@H]1O [amikacin]
[1]; [9]
  GE-HTS: 0.332
[2]; [9]
  cyt c: −0.090
[3]; [9]
  Viability: 0.034
[4]; [9]
  MTT: −1.688
[5]; [9]
  mitoOX: 0.338
[6]; [9]
  ΔΨm: −0.116
[7]; [9]
  nucOX: 0.268
[8]; [9]
  ROS: 0.301

## COc1ccc(-c2c(OC)c3c(OC)c4c(cc3oc2=O)OC(C)(C)C=C4)cc1 [robustic acid methyl ether, reference compound]
[1]; Conc 20 μM
  GE-HTS (composite Z-score): 0.230
[2]; Conc 20 μM
  cyt c (composite Z-score): 0.679
[3]; Conc 20 μM
  Viability (composite Z-score): 0.497
[4]; Conc 20 μM
  MTT (composite Z-score): 0.474
[5]; Conc 20 μM
  mitoOX (composite Z-score): −0.223
[6]; Conc 20 μM
  ΔΨm (composite Z-score): 0.692
[7]; Conc 20 μM
  nucOX (composite Z-score): 0.444
[8]; Conc 20 μM
  ROS (composite Z-score): 1.431

## CC(=O)N[C@@H](CC(=O)N[C@@H](CCC(=O)O)C(=O)O)C(=O)O [spaglumic acid]
[1]; [15]
  GE-HTS: 0.120
[2]
  cyt c: 0.600
[2]; [15]
  cyt c: 0.191
[3]; [15]
  Viability: −0.009
[4]; [15]
  MTT: −0.779
[5]; [15]
  mitoOX: −0.284
[6]; [15]
  ΔΨm: −0.685
[7]; [15]
  nucOX: 0.307
[8]; [15]
  ROS: 0.615

## COC(=O)C[C@H]1C(C)(C)C(=O)[C@@H]2CC3C4=CC(=O)O[C@@H](c5ccoc5)[C@]4(C)CC[C@@H]3[C@@]1(C)C2=O (stereo partly shown) [carapin]
[1]; [14]
  GE-HTS: 0.512
[2]; [14]
  cyt c: −0.096
[3]; [14]
  Viability: 1.424
[4]; [14]
  MTT: −0.925
[5]; [14]
  mitoOX: 0.058
[6]; [14]
  ΔΨm: −0.524
[7]; [14]
  nucOX: 0.665
[8]; [14]
  ROS: 1.897
